Results reported in patent US11590109B2 (priority 2016, dated 2023).

Tests used:
H7N9 (influenza virus) [1] = assay: microbe, parasite or virus in culture; details: Influenza A virus, H7N9, MDCK
in vitro [2] = details: African green monkey
H7N9 (influenza virus) [3] = details: H7N9 in host cell MDCK
H1N1 (influenza virus) [4] = assay: microbe, parasite or virus in culture; details: Influenza A virus, H1N1, MDCK
[5] = tested on: EV71 (hand-foot-and-mouth virus); assay: microbe, parasite or virus in culture; details: Enterovirus A
[6] = tested on: JEV (Japanese encephalitis virus); assay: Inhibition of viral replication (CPE) at cellular level, JEV in Vero; details: for SI (TC50/IC50): JEV in host cell Vero; for IC50: Japanese encephalitis virus, Vero
[7] = tested on: Dengue Virus 2 (type 2 dengue virus); assay: Inhibition of viral replication (CPE) at cellular level, Dengue Virus 2 in Vero; format: cell-based; details: Dengue Virus 2 in host cell Vero; for IC50: CPE
Description: Activity Test for Inhibition of Viral Replication at Cellular Level […]
The present inventors tested inhibitory effects of the compound of the present invention on cytopathic effects (CPE) caused by viral infection on mammalian cells.
Half-inhibitory concentration IC50 and half toxic concentration TC50 of the compound against Dengue Virus 2 (type 2 dengue virus) in host cell Vero (African green monkey kidney cell).

[8] = tested on: EV71 (hand-foot-and-mouth virus); details: for SI (TC50/IC50): EV71 in host cell RD
Zika Virus = assay: Inhibition of viral replication (CPE) at cellular level, Zika Virus in Vero; details: for SI (TC50/IC50): Zika Virus in host cell Vero; for IC50: Zika virus, Vero
in vitro [9] = details: dog
H1N1 (influenza virus) [10] = details: H1N1 in host cell MDCK
H3N2 (influenza virus) [11] = details: H3N2 in host cell MDCK
[12] = Determination of TC50 (half toxicity concentration) in RD cells; format: cell-based; details: human, host cell RD, EV71 table
[13] = tested on: RSV (human respiratory syncytial virus); assay: Inhibition of viral replication (CPE) at cellular level, RSV in Vero; details: for SI (TC50/IC50): RSV in host cell Vero; for IC50: human respiratory syncytial virus, Vero
H3N2 (influenza virus) [14] = assay: microbe, parasite or virus in culture; details: Influenza A virus, H3N2, MDCK
influenza virus = assay: microbe, parasite or virus in culture; format: cell-based; details: unidentified influenza virus, MDCK, read-out: inhibitory effect on influenza virus
[15] = tested on: H7N9 avian influenza virus; format: in vivo; details: lethal dose H7N9 (1MLD50) nasal, Compound 16 10 mg/kg, Oseltamivir 20 mg/kg, intraperitoneal, once a day for first 5 days, FIG. 4
[16] = TC50, host cell Vero, Dengue Virus 2 table
[17] = TC50, host cell Vero, RSV table
[18] = TC50, host cell Vero, Zika Virus table

## O=C(O)c1cc(F)c(F)cc1/C=N/Nc1nc(-c2ccccc2Cl)cs1 [Compound 23-1]
H7N9 (influenza virus) [1]
  IC50: 670 nM
In vitro [2]
  CC50: 36000 nM
In vitro [2]; [16]
  CC50: 78000 nM
In vitro [2]; [17]
  CC50: 101000 nM
In vitro [2]; [18]
  CC50: 76000 nM
H7N9 (influenza virus) [3]
  SI (TC50/IC50): 152
H1N1 (influenza virus) [4]
  IC50: 670 nM
[5]
  IC50: 370 nM
[6]
  SI (TC50/IC50): 124
  IC50: 290 nM
[7]
  SI (TC50/IC50): 200
  IC50: 390 nM
[8]
  SI (TC50/IC50): 5.4
Zika Virus
  SI (TC50/IC50): 262
  IC50: 290 nM
In vitro [9]; TC50
  CC50: 124000 nM
H1N1 (influenza virus) [10]
  SI (TC50/IC50): 300
H3N2 (influenza virus) [11]
  SI (TC50/IC50): 477
[12]
  CC50: 2000 nM
[13]
  SI (TC50/IC50): 19
  IC50: 5670 nM
H3N2 (influenza virus) [14]
  IC50: 260 nM

## CN(/N=C/c1ccc(F)cc1C(=O)O)c1nc(-c2ccccc2Cl)cs1 [Compound 10, (E)-4-(2-chlorophenyl)-2-[1-methyl-2-(2-carboxyl-4-fluorobenzylidene)hydrazino]thiazole]
H7N9 (influenza virus) [1]
  IC50: 280 nM
In vitro [2]
  CC50: 13000 nM
In vitro [2]; [16]
  CC50: 23000 nM
In vitro [2]; [17]
  CC50: 19000 nM
In vitro [2]; [18]
  CC50: 21000 nM
H7N9 (influenza virus) [3]
  SI (TC50/IC50): 161
H1N1 (influenza virus) [4]
  IC50: 210 nM
[5]
  IC50: 50 nM
[6]
  SI (TC50/IC50): 216
  IC50: 60 nM
[7]
  SI (TC50/IC50): 460
  IC50: 50 nM
[8]
  SI (TC50/IC50): 10
[8]; FIG. 2
  inhibitory effects on human hand-foot-mouth virus EV71: a certain inhibitory effects
Zika Virus
  SI (TC50/IC50): 350
  IC50: 60 nM
In vitro [9]; TC50
  CC50: 32000 nM
H1N1 (influenza virus) [10]
  SI (TC50/IC50): 233
H3N2 (influenza virus) [11]
  SI (TC50/IC50): 320
[12]
  CC50: 500 nM
[13]
  SI (TC50/IC50): 3.6
  IC50: 5210 nM
H3N2 (influenza virus) [14]
  IC50: 100 nM

## O=C(O)c1ccccc1/C=N/Nc1nc(-c2ccccc2Cl)cs1 [Compound 16, (E)-4-(2-chlorophenyl)-2-(2-carboxybenzylidenehydrazino)thiazole]
H7N9 (influenza virus) [1]
  IC50: 1200 nM
In vitro [2]; [16]
  CC50: 20000 nM
In vitro [2]; [17]
  CC50: 20000 nM
In vitro [2]; [18]
  CC50: 20000 nM
H7N9 (influenza virus) [3]
  SI (TC50/IC50): >41.7
H1N1 (influenza virus) [4]
  IC50: 500 nM
[5]
  IC50: 300 nM
[6]
  SI (TC50/IC50): 100
  IC50: 200 nM
Influenza virus
  IC50: ~2000 nM
[7]
  SI (TC50/IC50): 167
  IC50: 120 nM
[8]
  SI (TC50/IC50): 3.3
Zika Virus
  SI (TC50/IC50): 133
  IC50: 150 nM
In vitro [9]
  CC50: > 50000 nM
H1N1 (influenza virus) [10]
  SI (TC50/IC50): >100
H3N2 (influenza virus) [11]
  SI (TC50/IC50): >250
[12]
  CC50: 1000 nM
[15]
  therapeutic effect, recovery in the body weight of infected mice: therapeutic effects similar to the positive drug Oseltamivir
[13]; FIG. 3
  inhibitory effects on human respiratory syncytial virus RSV: a certain inhibitory effects
[13]
  SI (TC50/IC50): 4
  IC50: 5000 nM
H3N2 (influenza virus) [14]
  IC50: 200 nM

## CCN(/N=C/c1ccccc1C(=O)O)c1nc(-c2ccccc2Cl)cs1 [Compound 2, (E)-4-(2-chlorophenyl)-2-[1-ethyl-2-(2-carboxybenzylidene)hydrazino]thiazole]
H7N9 (influenza virus) [1]
  IC50: 5730 nM
In vitro [2]
  CC50: 16000 nM
In vitro [2]; [16]
  CC50: 24000 nM
In vitro [2]; [17]
  CC50: 29000 nM
In vitro [2]; [18]
  CC50: 24000 nM
H7N9 (influenza virus) [3]
  SI (TC50/IC50): 8
H1N1 (influenza virus) [4]
  IC50: 3690 nM
[5]
  IC50: 230 nM
[6]
  SI (TC50/IC50): 45.7
  IC50: 350 nM
[7]
  SI (TC50/IC50): 68.6
  IC50: 350 nM
[8]
  SI (TC50/IC50): 4.3
Zika Virus
  SI (TC50/IC50): 53
  IC50: 450 nM
In vitro [9]; TC50
  CC50: 23000 nM
H1N1 (influenza virus) [10]
  SI (TC50/IC50): 8
H3N2 (influenza virus) [11]
  SI (TC50/IC50): 15
[12]
  CC50: 1000 nM
[13]
  SI (TC50/IC50): 4
  IC50: 7690 nM
H3N2 (influenza virus) [14]
  IC50: 1500 nM

## O=C(O)c1cc(C(F)(F)F)ccc1/C=N/Nc1nc(-c2ccccc2Cl)cs1 [Compound 8-1]
H7N9 (influenza virus) [1]
  IC50: 860 nM
In vitro [2]
  CC50: 36000 nM
In vitro [2]; [16]
  CC50: 65000 nM
In vitro [2]; [17]
  CC50: 123000 nM
In vitro [2]; [18]
  CC50: 66000 nM
H7N9 (influenza virus) [3]
  SI (TC50/IC50): 117
H1N1 (influenza virus) [4]
  IC50: 890 nM
[5]
  IC50: 190 nM
[6]
  SI (TC50/IC50): 156
  IC50: 230 nM
[7]
  SI (TC50/IC50): 325
  IC50: 200 nM
[8]
  SI (TC50/IC50): 10.5
Zika Virus
  SI (TC50/IC50): 264
  IC50: 250 nM
In vitro [9]; TC50
  CC50: 114000 nM
H1N1 (influenza virus) [10]
  SI (TC50/IC50): 138
H3N2 (influenza virus) [11]
  SI (TC50/IC50): 456
[12]
  CC50: 2000 nM
[13]
  SI (TC50/IC50): 14
  IC50: 8890 nM
H3N2 (influenza virus) [14]
  IC50: 250 nM

## Cc1sc(N(C)/N=C/c2ccccc2C(=O)O)nc1-c1ccccc1 [Compound 12, (E)-5-methyl-4-phenyl-2-[1-methyl-2-(2-carboxybenzylidene)hydrazino]thiazole]
H7N9 (influenza virus) [1]
  IC50: 1090 nM
In vitro [2]; [16]
  CC50: 17000 nM
In vitro [2]; [17]
  CC50: 21000 nM
In vitro [2]; [18]
  CC50: 13000 nM
H7N9 (influenza virus) [3]
  SI (TC50/IC50): 54
H1N1 (influenza virus) [4]
  IC50: 790 nM
[5]
  IC50: 250 nM
[6]
  SI (TC50/IC50): 100
  IC50: 130 nM
[7]
  SI (TC50/IC50): 65
  IC50: 260 nM
[8]
  SI (TC50/IC50): 4
Zika Virus
  SI (TC50/IC50): 56.5
  IC50: 230 nM
In vitro [9]; TC50
  CC50: 51000 nM
H1N1 (influenza virus) [10]
  SI (TC50/IC50): 77
H3N2 (influenza virus) [11]
  SI (TC50/IC50): 146
[12]
  CC50: 1000 nM
[13]
  SI (TC50/IC50): 11.7
  IC50: 1790 nM
H3N2 (influenza virus) [14]
  IC50: 350 nM

## CN(/N=C/c1ccc(C(F)(F)F)cc1C(=O)O)c1nc(-c2ccccc2Cl)cs1 [Compound 8, (E)-4-(2-chlorophenyl)-2-[1-methyl-2-(4-trifluoromethyl-2-carboxybenzylidene)hydrazino]thiazole]
H7N9 (influenza virus) [1]
  IC50: 590 nM
In vitro [2]
  CC50: 17000 nM
In vitro [2]; [16]
  CC50: 19000 nM
In vitro [2]; [17]
  CC50: 31000 nM
In vitro [2]; [18]
  CC50: 19000 nM
H7N9 (influenza virus) [3]
  SI (TC50/IC50): 66
H1N1 (influenza virus) [4]
  IC50: 630 nM
[5]
  IC50: 90 nM
[6]
  SI (TC50/IC50): 170
  IC50: 100 nM
[7]
  SI (TC50/IC50): 211
  IC50: 90 nM
[8]
  SI (TC50/IC50): 11
Zika Virus
  SI (TC50/IC50): 158
  IC50: 120 nM
In vitro [9]; TC50
  CC50: 49000 nM
H1N1 (influenza virus) [10]
  SI (TC50/IC50): 49
H3N2 (influenza virus) [11]
  SI (TC50/IC50): 233
[12]
  CC50: 1000 nM
[13]
  SI (TC50/IC50): 5.5
  IC50: 5630 nM
H3N2 (influenza virus) [14]
  IC50: 210 nM
